Experimental findings from article PMC6761801 (ACS Omega, 2019) are described below.

Holding throughout (test): MIC, broth microdilution
Experiment [1] concerns Pseudomonas aeruginosa (KCTC 1637). The class given is cell-based. The following applies: P. aeruginosa, 2 × 10^6 CFU/mL.
Another experiment concerns S. aureus (KCTC 1621). The class given is cell-based, Staphylococcus aureus. The following applies: 2 × 10^6 CFU/mL.
Experiment [2] concerns Enterococcus faecalis (KCTC 2011). It counts as cell-based. The following applies: E. faecalis, 2 × 10^6 CFU/mL.
Experiment [3] relates to Staphylococcus epidermidis (KCTC 1917). The class given is cell-based. The following applies: S. epidermidis, 2 × 10^6 CFU/mL.
In experiment [4] the test system is Proteus vulgaris (KCTC 2433). It counts as cell-based. The following applies: P. vulgaris, 2 × 10^6 CFU/mL.
Another experiment deals with E. coli (KCTC 1682). It counts as cell-based, Escherichia coli. The following applies: 2 × 10^6 CFU/mL.
In experiment [5] the test system is Salmonella typhimurium (KCTC 1926). The class given is cell-based. The following applies: S. typhimurium, 2 × 10^6 CFU/mL.
The test system of experiment [6] is Bacillus subtilis (KCTC 3068). It counts as cell-based. The following applies: B. subtilis, 2 × 10^6 CFU/mL.
[7] abbreviates: in the presence of 16 μM R9 (+R9).

Ends that are not written are not given here.

As for “RRRRRRRRRGGGGIGKWLHSAKKFGKAFVGEIMNS-NH2 [R9-magainin]”, the “antimicrobial activity (MIC)” value in experiment [1] (peptide alone (−R9)) was 4 µM; in the experiment with S. aureus (KCTC 1621) (peptide alone (−R9)) it was 8 µM; in experiment [2] (peptide alone (−R9)) it was 4 µM; in experiment [3] (peptide alone (−R9)), 4 to 8 µM; in experiment [4] (peptide alone (−R9)) it was 4 to 8 µM; in the experiment with E. coli (KCTC 1682) (peptide alone (−R9)), 2 to 4 µM. Also, the “antimicrobial activity (MIC)” value in experiment [5] (peptide alone (−R9)) fell in the range of 1 to 2 µM; in experiment [6] (peptide alone (−R9)) it was 2 to 4 µM.
On to KWKKLLKKLLKLLKK-NH2 [M15], for which the “antimicrobial activity (MIC)” value is 32/32 μM in experiment [1] (setting [7]); 32/32 μM in experiment [1] (peptide alone (−R9)); 8/8 μM with S. aureus (KCTC 1621) (setting [7]); 8/8 μM in the experiment on S. aureus (KCTC 1621) (peptide alone (−R9)); 8 µM in experiment [2] (setting [7]); 16 µM in experiment [2] (peptide alone (−R9)). Also, the “antimicrobial activity (MIC)” value in experiment [3] (setting [7]) is 16 µM; in experiment [3] (peptide alone (−R9)) it was 16 to 32 µM; in experiment [4] (setting [7]) it was 32/32 μM; in experiment [4] (peptide alone (−R9)) it was 32/32 μM; in the experiment on E. coli (KCTC 1682) (setting [7]) it was 16 µM; with E. coli (KCTC 1682) (peptide alone (−R9)), 16 to 32 µM. Further, the “antimicrobial activity (MIC)” value is on record as 32/32 μM in experiment [5] (setting [7]), 32/32 μM in experiment [5] (peptide alone (−R9)), 8–16/8–16 μM in experiment [6] (setting [7]) and 8–16/8–16 μM in experiment [6] (peptide alone (−R9)).
Regarding `N=C(N)NCCC[C@H](NC(=O)[C@H](CCCNC(=N)N)NC(=O)[C@H](CCCNC(=N)N)NC(=O)[C@H](CCCNC(=N)N)NC(=O)[C@H](CCCNC(=N)N)NC(=O)[C@H](CCCNC(=N)N)NC(=O)[C@H](CCCNC(=N)N)NC(=O)[C@H](CCCNC(=N)N)NC(=O)[C@@H](N)CCCNC(=N)N)C(N)=O` [R9], the “antimicrobial activity (MIC)” value in experiment [6] (peptide alone (−R9)) was greater than 128 µM.
